Measurements as given in patent publication US9084770B2, “Modulation of insulin like growth factor I receptor expression in cancer” (Antisense Therapeutics, Ltd., priority 2008, dated 2015).
Read-outs that look alike come from different tables or passages of the source.

Assays:
PC3 cells [1] = experiment: Growth of PC3 cells with chemotherapeutic agents; assay type: cell-based, human; details: read-out: IC50 (cell growth)
Description: (§1) PC3 cells cultured in vitro were selected for resistance to Paclitaxel (Ptx-R).

PC3 cells [2] = experiment: PC3 viable cells and apoptosis after transfection plus Paclitaxel; details: Homo sapiens, PC-3, 72 h, read-out: reduction of viable cell count
Description: PC3 cells cultured in vitro were transfected at concentrations of IGF-IR antisense oligonucleotide (ATL1101) or control oligodeoxynucleotide (ISIS 306064) ranging from 12.5 nM to 50 nM or oligofectamine control once per day on two sequential days. After the 2nd transfection, the PC3 cells were treated with concentrations of between 0.1 to 50 nM Paclitaxel. The number of viable cells remaining were determined 72 hours after Paclitaxel treatment.

Ptx-R PC3 cells = experiment: Growth of Paclitaxel resistant Ptx-R PC3 cells with chemotherapeutic agents; assay type: cell-based, human; details: read-out: IC50 (cell growth)
Description: as §1

human IGF-IR mRNA = experiment: Antisense inhibition of human IGF-IR mRNA levels by quantitative RT-PCR (Table 1); assay type: cell-based; design: %INHIB (human IGF-IR mRNA levels): concentration or dose not given beside the values; details: for %INHIB (human IGF-IR mRNA levels): quantitative RT-PCR, averages from 3 experiments; for inhibition of IGF-IR expression (lead compounds): as shown in Table 1
[3] = Homo sapiens, PC-3, standard culture conditions

Row | Compound | %INHIB (human IGF-IR mRNA levels) (human IGF-IR mRNA) [%] | other results
1 | CC(=O)O[C@H]1C(=O)[C@@]2(C)[C@H]([C@H](OC(=O)c3ccccc3)[C@]3(O)C[C@H](OC(=O)[C@H](O)[C@@H](NC(=O)c4ccccc4)c4ccccc4)C(C)=C1C3(C)C)[C@]1(OC(C)=O)CO[C@@H]1C[C@@H]2O [Paclitaxel] |  | IC50 (PC3 cells [1]; [3]): 0.00256 µM; cytotoxicity at 0.0001 µM (PC3 cells [2]): ~5%; IC50 (Ptx-R PC3 cells; [3]): 0.0503 µM
2 | CC(=O)O[C@@]12CO[C@@H]1C[C@H](O)[C@@]1(C)C(=O)[C@H](O)C3=C(C)[C@@H](OC(=O)[C@H](O)[C@@H](NC(=O)OC(C)(C)C)c4ccccc4)C[C@@](O)([C@@H](OC(=O)c4ccccc4)[C@H]21)C3(C)C [Docataxel] |  | IC50 (PC3 cells [1]; [3]): 0.000827 µM; IC50 (Ptx-R PC3 cells; [3]): 0.01 µM
3 | 175306 (antisense AAGTCCGGGTCACAGGCGAG; listed as DNA, chemistry not fully specified) [compound 175306] | 54 | 
4 | N.N.[Cl][Pt][Cl] [Cisplatin] |  | IC50 (PC3 cells [1]; standard culture conditions): 0.01 µM; IC50 (Ptx-R PC3 cells; standard culture conditions): 0.0247 µM
5 | 323762 (antisense GCCTTGTGTCCTGAGTGTCT; listed as DNA, chemistry not fully specified) [compound 323762] | 84 | inhibition of IGF-IR expression (lead compounds) (human IGF-IR mRNA): demonstrated inhibition
6 | 175325 (antisense AAGGTCACAGCCGAGGCGAG; listed as DNA, chemistry not fully specified) [compound 175325] | 55 | 
7 | 175313 (antisense TAGGCGAGGAAAAACAAGCC; listed as DNA, chemistry not fully specified) [compound 175313] | 62 | 
8 | O=C1c2c(O)ccc(O)c2C(=O)c2c(NCCNCCO)ccc(NCCNCCO)c21 [Mitoxantrone] |  | IC50 (PC3 cells [1]; [3]): 0.00881 µM; IC50 (Ptx-R PC3 cells; [3]): 0.376 µM
9 | 175311 (antisense TAATGCTGGTAAACAAGAGC; listed as DNA, chemistry not fully specified) [compound 175311] | 53 | 
10 | 323744 (antisense CGTGGTTGCAGCTGTGGATA; listed as DNA, chemistry not fully specified) [compound 323744] | 85 | inhibition of IGF-IR expression (lead compounds) (human IGF-IR mRNA): demonstrated inhibition
11 | 175312 (antisense TTTCAAACCCGGAGAGGCAG; listed as DNA, chemistry not fully specified) [compound 175312] | 31 | 
12 | 175305 (antisense ATCCAGGACACACACAAAGC; listed as DNA, chemistry not fully specified) [compound 175305] | 81 | 
13 | 323739 (antisense CTGCTCTCAAAGAAAGGGTA; listed as DNA, chemistry not fully specified) [compound 323739] | 58 | 
14 | 323765 (antisense AAAAAGCTGCTTGCATATTG; listed as DNA, chemistry not fully specified) [compound 323765] | 74 | 
15 | 175298 (antisense GGAGTCAAAATGAATGAGCG; listed as DNA, chemistry not fully specified) [compound 175298] | 74 | 
16 | 175303 (antisense GAAGGTCACAGCCGAGGCGA; listed as DNA, chemistry not fully specified) [compound 175303] | 82 | 
17 | 323727 (antisense GGAGTAATTCCCTTCTAGCT; listed as DNA, chemistry not fully specified) [compound 323727] | 21 | 
18 | 323726 (antisense TGGGCACATTTTCTGGCAGC; listed as DNA, chemistry not fully specified) [compound 323726] | 57 | 
19 | 323749 (antisense GCGCTGCAGCCCAGCTTCTC; listed as DNA, chemistry not fully specified) [compound 323749] | 71 | 
20 | 175294 (antisense GAAGTCCGGGTCACAGGCGA; listed as DNA, chemistry not fully specified) [compound 175294] | 77 | 
21 | 175310 (antisense GCGGCGAGCTCCTTCCCAAA; listed as DNA, chemistry not fully specified) [compound 175310] | 76 | 
22 | 323724 (antisense GGTCCAGCAGCGGTAGTTGT; listed as DNA, chemistry not fully specified) [compound 323724] | 60 | 
23 | 175308 (antisense GTCGTCGGCCTCCATTTTCA; listed as DNA, chemistry not fully specified) [compound 175308] | 94 | inhibition of IGF-IR expression (lead compounds) (human IGF-IR mRNA): demonstrated inhibition
24 | 323753 (antisense AAGAACACAGGATCTGTCCA; listed as DNA, chemistry not fully specified) [compound 323753] | 38 | 
25 | 323702 (antisense CGGCCTTGGAGATGAGCAGG; listed as DNA, chemistry not fully specified) [compound 323702] | 66 | 
26 | 175296 (antisense ATGCTGGTAAACAAGAGCCC; listed as DNA, chemistry not fully specified) [compound 175296] | 57 | 
27 | 323745 (antisense AGCCTCGTGGTTGCAGCTGT; listed as DNA, chemistry not fully specified) [compound 323745] | 75 | 
28 | 323757 (antisense CGGAGATAACTTTTGAGATC; listed as DNA, chemistry not fully specified) [compound 323757] | 35 | 
29 | 323717 (antisense CTGGACACAGGTCCCCACAT; listed as DNA, chemistry not fully specified) [compound 323717] | 45 | 
